Article PMC9822400, “The Lipophilic Purine Nucleoside—Tdp1 Inhibitor—Enhances DNA Damage Induced by Topotecan In Vitro and Potentiates the Antitumor Effect of Topotecan In Vivo” (Molecules, 2022)
“Also recorded” adds a separate entry of the source.

Columns and labels:
HeLa cells = test: Alkaline Comet assay, accumulation of DNA damage; assay type: cell-based; settings: for Amount of DNA damage (% DNA in tail) in combination with Tpc compared to only Tpc: 10 μM Tpc + compound; for DNA in tail: 1 h; for Effect of the compound alone on the integrity of DNA: compound alone in concentrations up to 1 mM, compared to untreated or 1% DMSO
Source text: We studied the effect of Tdp1 inhibitors 5f and 6d on the accumulation of DNA damage by single-cell gel electrophoresis (Comet assay). […] This method has proven to be a simple, fast, and a quite sensitive way to detect DNA damage at the level of a single cell, allowing one to analyze almost any eukaryotic cell culture. Several analysis options allow one to visualize various types of DNA damage: single- and double-stranded breaks and alkaline-labile sites. This allows this method to be widely used in fundamental studies of DNA damage and repair and in testing the genotoxicity of new chemical and pharmaceutical drugs in vitro and in vivo [51, 52]. To study potential drugs, the alkaline version of the method (pH > 13) proposed by Singh and co-authors is widely used. This method allows the detection of all types of DNA damage with high sensitivity. In cells with a large amount of DNA damage, the structural organization and integrity of DNA are disrupted, which leads to its relaxation and/or fragmentation. As a result, cellular DNA in an electric field gives the observed objects the appearance of a “comet”.
Before studying the effect of Tdp1 inhibitors on the accumulation of DNA damage, it was necessary to find out how long the generation of DNA damage by Tpc and their repair take place in HeLa cells. To do this, cell culture was treated with Tpc at 1, 10, and 100 μM concentrations for 30 min, 1, 2, and 3 h and the level of damage to individual cells was monitored by Comet assay. It was shown that Tpc caused the greatest amount of damage after 30 minutes’ treatment. After this time, the repair systems began to correct these lesions and as a result, after 3 h most of them have been eliminated (Figure S9). […] The level of DNA damage at this point was enough to be detected, the data were reproducible, and can be evaluated by the Comet assay. The effect could be enhanced by the tested compounds without leading to cell death. It was important for us to see this enhancement in the presence of our compounds.
HeLa cell culture was grown in a 24-well plate to a concentration of 0.05 million/mL, then treated with the tested compounds and incubated for 1 h. To obtain a cell suspension, the cells were treated with trypsin (30 µL in each well for 5 min at 37 °C), and then 200 µL of PBS + 10% FBS were added to each well.
The resulting cell suspension (50 µL) was mixed with 250 µL of a 1% solution of molten low melting agarose (CertifiedTM LMAgarose; BIO-RAD), 250 µL of this mixture was transferred to the slides pre-coated with a 1% normal melting agarose (Agarose; Helicon), and left for several minutes at 4 °C to solidify. The resulting slides were incubated in a lysing solution (2.5 M NaCl, 100 mM EDTA, 10 mM Tris base, 1% Triton, 5% DMSO, pH 10.0) for an hour at 4 °C. Then the slides were immersed in an electrophoretic buffer (300 mM NaOH, 1 mM EDTA, pH > 13) for 45 min at 4 °C. Electrophoresis was performed at 20 V, 450 mA for 10 min while cooling on ice. After that, the slides were immersed 2 times for 5 min in 0.4 M Tris-HCl pH 7.5 solution for neutralization, washed twice with cold water, and stained with SYBR Green I (excitation maximum at 497 nm, emission maximum at 520 nm; Thermo Fisher Scientific KK).
The images were obtained using a CELENA © S digital microscope (Logos Biosystems, Inc., Annandale, VA, USA) and analyzed with Comet analysis software (Trevigen, Inc., Gaithersburg, MD, USA. In all experiments, 2 slides were evaluated for each sample by counting at least 200 cells on the glass. As a parameter for measuring the level of DNA damage, the median value of the percentage of DNA in the tail was chosen (% Tail DNA = 100 × the intensity of DNA fluorescence in the tail of the comet/the intensity of fluorescence of the total DNA of the comet).

human recombinant PARP2 = target: T1, human recombinant PARP2 (Homo sapiens, UniProt Q9UGN5); test: PARP2 activity by inclusion of α-[32P]-NAD+ in poly(ADP-ribose); assay type: biochemical; settings: in the presence of 1 mM compound; read-out: Residual activity of PARP2
T1 construct: made in house
Procedure: (§1) Since it has previously been shown that nucleoside derivatives can inhibit enzymes of the PARP family, we also checked whether the studied compounds were able to inhibit the enzymes PARP1 and PARP2. […] Thus, when using our compounds, one cannot expect side effects from PARP1/2.
(§2) Purified human recombinant PARP1/2 [65] and [^32P] NAD^+ [27] were prepared as described earlier. The activity of PARP1/2 was evaluated by the rate of incorporation of the radioactive label into the acid-insoluble reaction product—PAR as described previously.

[1] = target: T2, purified recombinant human Tdp1 (Homo sapiens, UniProt Q9NUW8); test: Real-time detection of Tdp1 activity (removal of BHQ1 from a 5′-FAM 16-nt oligonucleotide, fluorescence); assay type: biochemical; settings: 1.5 nM Tdp1, 50 nM oligonucleotide, 25 °C, three independent experiments
T2 construct: made in house
Procedure: In this work, four natural nucleosides (1-4) and […] aromatic lipophilic derivatives of purine nucleosides (5a-f, 6a-d) were tested for Tdp1 activity. The used test system was based on the enzyme’s ability to remove Black Hole Quencher 1 (BHQ1) from the 3′ end of a 5′ FAM 16-nt oligonucleotide. As a result, an increase in FAM fluorescence was detected and the obtained kinetic curves were used to calculate the IC50 parameter (the concentration of the inhibitor at which the enzyme activity is reduced by half). We have found potent Tdp1 inhibitors with IC50 in the range from 0.3 to 7 μM (Table 1).
Purified human recombinant Tdp1 was prepared as described earlier. Real-time detection of Tdp1 activity was reported in our previous work. The approach consists of a fluorescence intensity measurement of the reaction of quencher removal from the fluorophore-quencher coupled DNA oligonucleotide catalyzed by Tdp1 in the presence of the inhibitor (the control samples contained 1% DMSO). The biosensor was single-stranded oligonucleotide (5′-[FAM] AAC GTC AGGGTC TTC C [BHQ]-3′) containing fluorophore at the 5′ end (5,6-FAM) and a Black Hole Quencher 1 (BHQ) at the 3′ end, and was synthesized in the Laboratory of nucleic acid chemistry at the Institute of Chemical Biology and Fundamental Medicine SB RAS, Novosibirsk, Russia. The reactions were incubated at a constant temperature 25 °C in a POLARstar OPTIMA fluorimeter, BMG LABTECH, GmbH, to measure fluorescence every 55 s (Ex485/Em520 nm) during the linear phase (here, the data are from 0 to 8 min). […] The IC50 values were determined using a six-point concentration response curve in three independent experiments and calculated using MARS Data Analysis 2.0 (BMG LABTECH).

human recombinant PARP1 = target: T3, human recombinant PARP1 (Homo sapiens, UniProt P09874); test: PARP1 activity by inclusion of α-[32P]-NAD+ in poly(ADP-ribose); assay type: biochemical; settings: in the presence of 1 mM compound; read-out: Residual activity of PARP1
T3 construct: made in house
Procedure: as §1, §2

[2] = compound 10 μM + Topotecan 10 μM
[3] = compound 50 μM + Topotecan 10 μM
[4] = compound 200 μM + Topotecan 10 μM

T1 sequence (Q9UGN5 whole entry): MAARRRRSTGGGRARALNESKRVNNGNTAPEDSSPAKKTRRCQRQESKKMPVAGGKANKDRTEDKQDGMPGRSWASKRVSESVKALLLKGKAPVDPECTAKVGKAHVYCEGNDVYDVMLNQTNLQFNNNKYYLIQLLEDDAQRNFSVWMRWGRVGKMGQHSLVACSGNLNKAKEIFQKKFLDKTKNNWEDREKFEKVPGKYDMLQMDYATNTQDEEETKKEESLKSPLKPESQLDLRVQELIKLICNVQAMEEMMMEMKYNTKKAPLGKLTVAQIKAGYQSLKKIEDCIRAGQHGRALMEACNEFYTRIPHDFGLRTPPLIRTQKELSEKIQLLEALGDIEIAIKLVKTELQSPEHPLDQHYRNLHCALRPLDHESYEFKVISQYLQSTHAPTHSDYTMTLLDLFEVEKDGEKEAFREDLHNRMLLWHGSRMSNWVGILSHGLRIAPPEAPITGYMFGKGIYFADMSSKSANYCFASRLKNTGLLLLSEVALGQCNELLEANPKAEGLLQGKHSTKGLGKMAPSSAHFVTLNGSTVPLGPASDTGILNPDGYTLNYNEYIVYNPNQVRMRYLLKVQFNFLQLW
T2 sequence (Q9NUW8 whole entry): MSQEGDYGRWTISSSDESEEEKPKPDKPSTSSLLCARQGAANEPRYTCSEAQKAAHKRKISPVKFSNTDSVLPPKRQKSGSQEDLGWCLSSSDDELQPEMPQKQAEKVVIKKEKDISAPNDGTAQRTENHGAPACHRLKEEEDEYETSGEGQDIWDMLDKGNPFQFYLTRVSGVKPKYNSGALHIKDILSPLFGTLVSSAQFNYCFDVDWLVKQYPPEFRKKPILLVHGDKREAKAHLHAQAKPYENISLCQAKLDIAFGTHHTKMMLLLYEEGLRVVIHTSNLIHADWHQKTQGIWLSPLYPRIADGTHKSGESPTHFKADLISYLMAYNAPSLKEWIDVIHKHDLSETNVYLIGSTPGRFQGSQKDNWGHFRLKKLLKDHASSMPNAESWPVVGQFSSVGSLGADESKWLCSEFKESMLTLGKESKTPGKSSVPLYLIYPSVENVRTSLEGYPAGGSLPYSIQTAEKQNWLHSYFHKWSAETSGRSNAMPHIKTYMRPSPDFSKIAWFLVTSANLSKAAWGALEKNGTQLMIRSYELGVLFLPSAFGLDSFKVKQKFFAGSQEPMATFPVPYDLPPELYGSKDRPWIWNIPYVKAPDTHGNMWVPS
T3 sequence (P09874 whole entry): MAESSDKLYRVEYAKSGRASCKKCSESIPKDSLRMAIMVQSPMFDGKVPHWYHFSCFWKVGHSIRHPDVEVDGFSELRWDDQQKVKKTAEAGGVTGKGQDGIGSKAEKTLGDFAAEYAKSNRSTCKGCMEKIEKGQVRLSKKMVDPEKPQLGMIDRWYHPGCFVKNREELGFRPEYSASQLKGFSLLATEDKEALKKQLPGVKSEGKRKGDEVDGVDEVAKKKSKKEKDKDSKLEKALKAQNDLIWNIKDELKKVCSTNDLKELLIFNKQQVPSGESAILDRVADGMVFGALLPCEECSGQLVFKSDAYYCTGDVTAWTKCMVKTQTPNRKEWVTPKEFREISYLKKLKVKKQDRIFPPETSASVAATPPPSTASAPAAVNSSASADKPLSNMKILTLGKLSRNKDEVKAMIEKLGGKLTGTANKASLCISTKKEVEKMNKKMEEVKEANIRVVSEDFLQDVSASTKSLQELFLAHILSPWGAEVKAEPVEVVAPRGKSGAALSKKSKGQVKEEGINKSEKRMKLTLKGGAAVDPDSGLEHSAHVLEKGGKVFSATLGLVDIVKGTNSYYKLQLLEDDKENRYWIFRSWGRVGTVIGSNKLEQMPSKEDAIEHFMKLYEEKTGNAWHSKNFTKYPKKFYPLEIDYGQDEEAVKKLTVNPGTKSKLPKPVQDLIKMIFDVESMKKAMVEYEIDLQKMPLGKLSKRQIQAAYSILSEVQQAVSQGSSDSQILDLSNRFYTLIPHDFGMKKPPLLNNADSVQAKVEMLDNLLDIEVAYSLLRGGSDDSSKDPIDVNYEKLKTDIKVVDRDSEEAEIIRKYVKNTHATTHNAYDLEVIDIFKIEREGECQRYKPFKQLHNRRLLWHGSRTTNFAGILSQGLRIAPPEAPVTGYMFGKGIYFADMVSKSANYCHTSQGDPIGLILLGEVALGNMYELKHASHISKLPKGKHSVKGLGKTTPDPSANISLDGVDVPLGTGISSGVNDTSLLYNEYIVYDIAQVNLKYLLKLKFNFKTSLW

| SMILES | Amount of DNA damage (% DNA in tail) in combination with Tpc compared to only Tpc (HeLa cells) | DNA in tail (HeLa cells; [2]) [%] | DNA in tail (HeLa cells; [3]) [%] | DNA in tail (HeLa cells; [4]) [%] | Effect of the compound alone on the integrity of DNA (HeLa cells) | remaining activity at 1000 µM (human recombinant PARP2) [%] | IC50 [1] [nM] | remaining activity at 1000 µM (human recombinant PARP1) [%] | Reduction of the topotecan dose required to produce a serious level of DNA damage (HeLa cells; Tpc 1 μM + 6d 5 μM similar to only Tpc 10 μM) [times] |
| --- | --- | --- | --- | --- | --- | --- | --- | --- | --- |
| O[C@@H]1[C@H](O)[C@@H](COC(c2ccccc2)(c2ccccc2)c2ccccc2)O[C@H]1n1cnc2c(NC(c3ccccc3)(c3ccccc3)c3ccccc3)ncnc21 [compound 5f] | did not significantly differ | 37±3 | 40±3 | 42±4 | did not affect the integrity of DNA | 113 ± 18 | 300 ± 60 | 100 ± 10 | – |
| O=C(OC[C@H]1O[C@@H](n2cnc3c(Cl)nc(Cl)nc32)[C@H](OC(=O)c2ccccc2)[C@@H]1OC(=O)c1ccccc1)c1ccccc1 [compound 6d, 2,6-dichloro-9-(2,3,5-tri-O-benzoyl-β-D-ribofuranosyl)purine] | increased the amount of DNA damage | 50±2 | 65±6 | 71±4 | did not affect the integrity of DNA; also recorded: does not cause DNA damage by itself | 86 ± 9 | 820 ± 20 | 96 ± 12 | 10 |
| O=C(OC[C@H]1O[C@@H](n2cnc3c(Cl)nc(F)nc32)[C@H](OC(=O)c2ccccc2)[C@@H]1OC(=O)c1ccccc1)c1ccccc1 [compound 6c, 2-Fluoro-6-chloro-9-(2,3,5-tri-O-benzoyl-β-D-ribofuranosyl)purine] | – | – | – | – | – | 80 ± 20 | 1000 ± 200 | 82 ± 17 | – |
